Data taken from US8975263B2, “Phenylxanthene derivatives” (Daiichi Sankyo Company, Limited, priority 2013, dated 2015).

test system: C57BL/6J mice; test: Oral glucose tolerance test; type: in vivo; conditions: male C57BL/6J mice, fasted overnight; oral gavage 10 mg/kg; solvent 0.5% MC; glucose 3 g/kg orally 30 minutes after compound; area under the curve of blood glucose level relative to control group
Experimental: Commercially available mice (C57BL/6J mice; male; 8 to 12 weeks old when used; distributed by Charles River Laboratories Japan, Inc.) were used.
After acclimatization with freely feeding (FR-2, Funabashi Farm Co., Ltd.) for one week or more, the mice were fasted overnight and then used for the test. A 0.5% methylcellulose (Wako Pure Chemical Industries, Ltd.) solution (0.5% MC) containing a test compound at a concentration of 1 mg/ml and a mixed solution (PG:Tween) of propylene glycol (80 v/v %, Nacalai Tesque, Inc.) and Tween 80 (20 v/v %, Nacalai Tesque, Inc.) containing a test compound at a concentration of 2 mg/ml were prepared for administration to the mice. The prepared solution was administered by oral gavage to four or five mice in each group at a dose of 10 mg/kg as the test compound. For a control group, a 0.5% methylcellulose solution (dose: 10 ml/kg) or a mixed solution of propylene glycol and Tween 80 (dose: 5 ml/kg) was orally administered to mice. An oral glucose tolerance test was carried out by administering a glucose solution (Otsuka Glucose Solution 50%; Otsuka Pharmaceutical Factory, Inc.) orally at a dose of 3 g/kg to the mice 30 minutes after administration of the test compound.
Blood was collected from the tail vein of each mouse immediately before administration of the test compound (T0), […] after administration of the test compound (T1), and 30 minutes (T2) and 90 minutes (T3) after oral glucose loading. The blood glucose level was measured using a blood glucose level measuring apparatus (ACCU-CHEK Aviva; Roche Diagnostics, K.K.). The blood glucose level T1 was analyzed as a value obtained 30 minutes after administration of the compound and immediately before glucose loading. According to the following formula, the area under the curve of blood glucose level was calculated, and thereafter, the blood glucose lowering rate (%) was calculated as a value relative to the control group. The area under the curve of blood glucose level=[(blood glucose level T0+blood glucose level T1)×30]÷2+[(blood glucose level T1+blood glucose level T2)×30]÷2+[(blood glucose level T2+blood glucose level T3)×60]÷2 Blood glucose lowering rate(%)=[1−(the area under the curve of blood glucose level for the test compound group/the area under the curve of blood glucose level for the control group)]×100

| Compound | Blood glucose lowering rate (%) |
| --- | --- |
| CNc1ccc(-c2ccc(OC)c(C3C4=C(CC(C)(C)CC4=O)OC4=C3C(=O)CC(C)(C)C4)c2C)nc1C(=O)O [Example 53, 6-[4-Methoxy-2-methyl-3-(3,3,6,6-tetramethyl-1,8-dioxo-2,3,4,5,6,7,8,9-octahydro-1H-xanthen-9-yl)phenyl]-3-(methylamino)pyridine-2-carboxylic acid] | 64% |
| COc1ccc(-c2ccc(C)c(C(=O)O)n2)cc1C1C2=C(CC(C)(C)CC2=O)OC2=C1C(=O)CC(C)(C)C2 [Example 30, 6-[4-Methoxy-3-(3,3,6,6-tetramethyl-1,8-dioxo-2,3,4,5,6,7,8,9-octahydro-1H-xanthen-9-yl)phenyl]-3-methylpyridine-2-carboxylic acid] | 55% |
| COc1ccc(-c2cccc(C(=O)NS(C)(=O)=O)n2)c(C)c1C1C2=C(CC(C)(C)CC2=O)OC2=C1C(=O)CC(C)(C)C2.[K] [Example 14, 6-[4-Methoxy-2-methyl-3-(3,3,6,6-tetramethyl-1,8-dioxo-2,3,4,5,6,7,8,9-octahydro-1H-xanthen-9-yl)phenyl]-N-(methylsulfonyl)pyridine-2-carboxamide potassium salt] | 46% |
| COc1ccc(-c2ccc(N)c(C(=O)O)n2)c(C)c1C1C2=C(CC(C)(C)CC2=O)OC2=C1C(=O)CC(C)(C)C2 [Example 48, 3-Amino-6-[4-methoxy-2-methyl-3-(3,3,6,6-tetramethyl-1,8-dioxo-2,3,4,5,6,7,8,9-octahydro-1H-xanthen-9-yl)phenyl]pyridine-2-carboxylic acid] | 62% |
| COc1ccc(-c2nc(C(=O)O)ccc2C)c(C)c1C1C2=C(CC(C)(C)CC2=O)OC2=C1C(=O)CC(C)(C)C2 [Example 34, 6-[4-Methoxy-2-methyl-3-(3,3,6,6-tetramethyl-1,8-dioxo-2,3,4,5,6,7,8,9-octahydro-1H-xanthen-9-yl)phenyl]-5-methylpyridine-2-carboxylic acid] | 58% |
| COc1ccc(-c2cc(C)c(C)c(C(=O)O)n2)c(C)c1C1C2=C(CC(C)(C)CC2=O)OC2=C1C(=O)CC(C)(C)C2 [Example 43, 6-[4-Methoxy-2-methyl-3-(3,3,6,6-tetramethyl-1,8-dioxo-2,3,4,5,6,7,8,9-octahydro-1H-xanthen-9-yl)phenyl]-3,4-dimethylpyridine-2-carboxylic acid] | 60% |
| CC(C)(C)N.COc1ccc(-c2cc(C)cc(C(=O)NS(C)(=O)=O)n2)c(C)c1C1C2=C(CC(C)(C)CC2=O)OC2=C1C(=O)CC(C)(C)C2 [Example 42, 6-[4-Methoxy-2-methyl-3-(3,3,6,6-tetramethyl-1,8-dioxo-2,3,4,5,6,7,8,9-octahydro-1H-xanthen-9-yl)phenyl]-4-methyl-N-(methylsulfonyl)pyridine-2-carboxamide 2-methylpropan-2-amine salt] | 44% |
| CCc1ccc(-c2ccc(OC)c(C3C4=C(CC(C)(C)CC4=O)OC4=C3C(=O)CC(C)(C)C4)c2)nc1C(=O)NS(C)(=O)=O [Example 46, 3-Ethyl-6-[4-methoxy-3-(3,3,6,6-tetramethyl-1,8-dioxo-2,3,4,5,6,7,8,9-octahydro-1H-xanthen-9-yl)phenyl]-N-(methylsulfonyl)pyridine-2-carboxamide] | 47% |
| COc1ccc(-c2cc(C)c(C)c(C(=O)NS(C)(=O)=O)n2)c(C)c1C1C2=C(CC(C)(C)CC2=O)OC2=C1C(=O)CC(C)(C)C2 [Example 44, 6-[4-Methoxy-2-methyl-3-(3,3,6,6-tetramethyl-1,8-dioxo-2,3,4,5,6,7,8,9-octahydro-1H-xanthen-9-yl)phenyl]-3,4-dimethyl-N-(methylsulfonyl)pyridine-2-carboxamide] | 44% |
| COc1ccc(-c2cc3c(c(C(=O)O)n2)CCCC3)c(C)c1C1C2=C(CC(C)(C)CC2=O)OC2=C1C(=O)CC(C)(C)C2 [Example 47, 3-[4-Methoxy-2-methyl-3-(3,3,6,6-tetramethyl-1,8-dioxo-2,3,4,5,6,7,8,9-octahydro-1H-xanthen-9-yl)phenyl]-5,6,7,8-tetrahydroisoquinoline-1-carboxylic acid] | 56% |
| CC(C)(C)N.COc1ccc(-c2ccc(C)c(C(=O)NS(C)(=O)=O)n2)c(C)c1C1C2=C(CC(C)(C)CC2=O)OC2=C1C(=O)CC(C)(C)C2 [Example 41, 6-[4-Methoxy-2-methyl-3-(3,3,6,6-tetramethyl-1,8-dioxo-2,3,4,5,6,7,8,9-octahydro-1H-xanthen-9-yl)phenyl]-3-methyl-N-(methylsulfonyl)pyridine-2-carboxamide 2-methylpropan-2-amine salt] | 44% |
| COc1ccc(-c2ccc(N)c(C(=O)NS(C)(=O)=O)n2)cc1C1C2=C(CC(C)(C)CC2=O)OC2=C1C(=O)CC(C)(C)C2 [Example 52, 3-Amino-6-[4-methoxy-3-(3,3,6,6-tetramethyl-1,8-dioxo-2,3,4,5,6,7,8,9-octahydro-1H-xanthen-9-yl)phenyl]-N-(methylsulfonyl)pyridine-2-carboxamide] | 44% |
| CCc1ccc(-c2ccc(OC)c(C3C4=C(CC(C)(C)CC4=O)OC4=C3C(=O)CC(C)(C)C4)c2)nc1C(=O)O [Example 45, 3-Ethyl-6-[4-methoxy-3-(3,3,6,6-tetramethyl-1,8-dioxo-2,3,4,5,6,7,8,9-octahydro-1H-xanthen-9-yl)phenyl]pyridine-2-carboxylic acid] | 42% |

same assay, conditions: male C57BL/6J mice, fasted overnight; oral gavage 10 mg/kg; solvent PG:Tween; glucose 3 g/kg orally 30 minutes after compound; area under the curve of blood glucose level relative to control group

| Compound | Blood glucose lowering rate (%) |
| --- | --- |
| COc1ccc(-c2ccc(OC)c(C3C4=C(CC(C)(C)CC4=O)OC4=C3C(=O)CC(C)(C)C4)c2C)nc1C(=O)O [Example 23, 3-Methoxy-6-[4-methoxy-2-methyl-3-(3,3,6,6-tetramethyl-1,8-dioxo-2,3,4,5,6,7,8,9-octahydro-1H-xanthen-9-yl)phenyl]pyridine-2-carboxylic acid] | 46% |
| COc1ccc(-c2cccc(-c3noc(=O)[nH]3)n2)cc1C1C2=C(CC(C)(C)CC2=O)OC2=C1C(=O)CC(C)(C)C2 [Example 8, 9-{2-Methoxy-5-[6-(5-oxo-4,5-dihydro-1,2,4-oxadiazol-3-yl)pyridin-2-yl]phenyl}-3,3,6,6-tetramethyl-3,4,5,6,7,9-hexahydro-1H-xanthene-1,8(2H)-dione] | 38% |
| COc1ccc(-c2cccc(C(=O)NS(C)(=O)=O)n2)cc1C1C2=C(CC(C)(C)CC2=O)OC2=C1C(=O)CC(C)(C)C2 [Example 5, 6-[4-Methoxy-3-(3,3,6,6-tetramethyl-1,8-dioxo-2,3,4,5,6,7,8,9-octahydro-1H-xanthen-9-yl)phenyl]-N-(methylsulfonyl)pyridine-2-carboxamide] | 43% |
| COc1ccc(-c2ccnc(C(N)=O)n2)c(C)c1C1C2=C(CC(C)(C)CC2=O)OC2=C1C(=O)CC(C)(C)C2 [Example 75, 4-[4-Methoxy-2-methyl-3-(3,3,6,6-tetramethyl-1,8-dioxo-2,3,4,5,6,7,8,9-octahydro-1H-xanthen-9-yl)phenyl]pyrimidine-2-carboxylic acid amide] | 35% |
| COc1ccc(-c2ccc(C)c(C(=O)O)n2)c(C)c1C1C2=C(CC(C)(C)CC2=O)OC2=C1C(=O)CC(C)(C)C2 [Example 10, 6-[4-Methoxy-2-methyl-3-(3,3,6,6-tetramethyl-1,8-dioxo-2,3,4,5,6,7,8,9-octahydro-1H-xanthen-9-yl)phenyl]-3-methylpyridine-2-carboxylic acid] | 55% |
| COc1ccc(-c2cccc(C(=O)O)n2)c(C)c1C1C2=C(CC(C)(C)CC2=O)OC2=C1C(=O)CC(C)(C)C2 [Example 4, 6-[4-Methoxy-2-methyl-3-(3,3,6,6-tetramethyl-1,8-dioxo-2,3,4,5,6,7,8,9-octahydro-1H-xanthen-9-yl)phenyl]pyridine-2-carboxylic acid] | 60% |
| COc1ccc(-c2cccc(C(=O)NS(C)(=O)=O)n2)c(C)c1C1C2=C(CC(C)(C)CC2=O)OC2=C1C(=O)CC(C)(C)C2 [Example 9, 6-[4-Methoxy-2-methyl-3-(3,3,6,6-tetramethyl-1,8-dioxo-2,3,4,5,6,7,8,9-octahydro-1H-xanthen-9-yl)phenyl]-N-(methylsulfonyl)pyridine-2-carboxamide] | 42% |
